The values below come from patent publication EP0863769B1 (priority 1996, dated 1998).

The target in the experiment is A/England/12/64. The experiment is classed as binding, Influenza Viren. Particulars: read-out: Affinität der Bindung an Virus, Kaff.

pKd: −log10 of the molar value.

For “Poly-N-(2-Hydroxyethyl)-acrylamid mit 20% mol. 6SLN [6SLN-PAA]”, the pKd was 7.00.
